Results: article PMC4363092 (Journal of medicinal chemistry, 2014)

What was measured:
TNAP = target: T1, TNAP (Homo sapiens, UniProt P05186); experiment: TNAP stability assay: hydrolysis by TNAP; type: in vitro ADME; details: 1 h, pH 9, 100 μM (data not shown)
T1 sequence (P05186 18-502 limits assumed): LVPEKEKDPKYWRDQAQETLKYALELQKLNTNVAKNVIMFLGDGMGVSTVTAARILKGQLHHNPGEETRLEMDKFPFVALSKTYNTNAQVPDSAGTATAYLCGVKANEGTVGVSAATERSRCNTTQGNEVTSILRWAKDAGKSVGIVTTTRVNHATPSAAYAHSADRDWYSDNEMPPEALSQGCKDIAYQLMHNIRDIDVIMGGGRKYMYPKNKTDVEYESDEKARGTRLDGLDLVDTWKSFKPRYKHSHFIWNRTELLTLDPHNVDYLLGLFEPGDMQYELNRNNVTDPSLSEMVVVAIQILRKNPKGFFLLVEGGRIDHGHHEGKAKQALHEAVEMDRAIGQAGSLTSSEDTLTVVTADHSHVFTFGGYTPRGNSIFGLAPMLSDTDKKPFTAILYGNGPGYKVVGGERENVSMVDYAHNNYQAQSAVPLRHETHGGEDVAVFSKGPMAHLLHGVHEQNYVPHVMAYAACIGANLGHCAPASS

human NPP1 = target: T2, human NPP1 (Homo sapiens, UniProt P22413); experiment: Inhibition of NPP1, pNP-TMP as substrate; type: biochemical; details: Dixon and Cornish–Bowden methods
T2 sequence (P22413 1-925): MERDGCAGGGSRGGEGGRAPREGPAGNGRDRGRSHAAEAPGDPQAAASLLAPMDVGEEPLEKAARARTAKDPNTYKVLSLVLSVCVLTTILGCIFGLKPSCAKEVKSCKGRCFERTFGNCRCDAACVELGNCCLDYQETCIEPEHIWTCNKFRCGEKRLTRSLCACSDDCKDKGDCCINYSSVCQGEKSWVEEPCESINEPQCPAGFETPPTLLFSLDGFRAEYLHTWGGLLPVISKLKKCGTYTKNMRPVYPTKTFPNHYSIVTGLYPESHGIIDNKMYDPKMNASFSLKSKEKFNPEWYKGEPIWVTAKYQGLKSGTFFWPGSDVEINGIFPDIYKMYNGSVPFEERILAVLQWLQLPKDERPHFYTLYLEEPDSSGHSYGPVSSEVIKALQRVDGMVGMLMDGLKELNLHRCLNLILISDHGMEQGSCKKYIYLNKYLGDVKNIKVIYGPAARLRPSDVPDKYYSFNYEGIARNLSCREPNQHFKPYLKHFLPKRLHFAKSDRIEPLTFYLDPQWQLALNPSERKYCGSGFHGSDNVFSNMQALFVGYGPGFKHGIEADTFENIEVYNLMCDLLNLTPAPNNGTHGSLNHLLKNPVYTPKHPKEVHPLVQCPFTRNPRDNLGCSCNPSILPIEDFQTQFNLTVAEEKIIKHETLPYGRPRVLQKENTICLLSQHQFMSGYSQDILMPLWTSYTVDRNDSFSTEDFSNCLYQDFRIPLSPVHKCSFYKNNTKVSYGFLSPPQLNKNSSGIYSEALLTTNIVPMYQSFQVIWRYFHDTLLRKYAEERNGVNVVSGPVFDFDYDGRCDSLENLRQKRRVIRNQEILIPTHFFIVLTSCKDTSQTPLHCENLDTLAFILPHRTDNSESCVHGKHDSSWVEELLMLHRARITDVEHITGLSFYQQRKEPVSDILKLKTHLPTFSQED

P2Y2 receptor = P2Y2 receptor (Homo sapiens, UniProt P41231); experiment: [Ca2+]i response in 1321N1 astrocytoma cells expressing GFP-P2Y2 receptor; type: cell-based; details: for agonist activity at P2Y2R: 100 μM; for inhibition of the typical response to UTP at P2Y2R: 1321N1 cells (data not shown)
human NTPDase1 = target: T3, human NTPDase1 (Homo sapiens, UniProt P49961); details: analogue 100 μM as substrate; activity with 100 μM ATP set as 100%
T3 sequence (P49961 1-510): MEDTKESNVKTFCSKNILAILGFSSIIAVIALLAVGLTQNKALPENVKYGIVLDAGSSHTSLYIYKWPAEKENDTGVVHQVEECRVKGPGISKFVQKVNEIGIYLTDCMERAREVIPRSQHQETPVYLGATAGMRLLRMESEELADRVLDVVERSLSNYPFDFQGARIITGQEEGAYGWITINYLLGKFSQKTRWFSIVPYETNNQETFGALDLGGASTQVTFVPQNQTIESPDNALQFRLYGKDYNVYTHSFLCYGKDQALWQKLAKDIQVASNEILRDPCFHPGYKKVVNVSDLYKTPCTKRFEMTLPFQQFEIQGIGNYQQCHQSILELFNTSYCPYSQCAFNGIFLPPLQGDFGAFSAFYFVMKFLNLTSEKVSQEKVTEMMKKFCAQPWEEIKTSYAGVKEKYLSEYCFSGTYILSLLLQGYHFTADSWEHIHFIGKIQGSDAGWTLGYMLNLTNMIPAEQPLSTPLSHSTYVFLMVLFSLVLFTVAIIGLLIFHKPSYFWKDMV

human NTPDase3 = target: T4, human NTPDase3 (Homo sapiens, UniProt O75355); details: analogue 100 μM as substrate; activity with 100 μM ATP set as 100%
T4 sequence (O75355 1-529): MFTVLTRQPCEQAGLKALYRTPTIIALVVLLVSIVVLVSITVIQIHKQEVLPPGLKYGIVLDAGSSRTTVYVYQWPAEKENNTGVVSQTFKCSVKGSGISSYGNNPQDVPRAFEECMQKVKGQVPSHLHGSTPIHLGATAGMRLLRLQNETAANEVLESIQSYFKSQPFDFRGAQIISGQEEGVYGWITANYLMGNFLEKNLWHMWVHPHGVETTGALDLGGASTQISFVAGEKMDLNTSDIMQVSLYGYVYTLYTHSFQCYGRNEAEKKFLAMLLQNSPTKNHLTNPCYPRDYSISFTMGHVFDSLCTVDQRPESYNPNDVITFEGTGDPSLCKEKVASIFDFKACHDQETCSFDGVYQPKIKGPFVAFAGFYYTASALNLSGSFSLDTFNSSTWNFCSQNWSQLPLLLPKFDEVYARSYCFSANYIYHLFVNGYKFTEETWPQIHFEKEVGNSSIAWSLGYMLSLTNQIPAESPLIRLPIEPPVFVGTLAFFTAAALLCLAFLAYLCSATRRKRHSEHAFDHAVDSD

Chain of P2Y2 receptor (P41231 whole entry): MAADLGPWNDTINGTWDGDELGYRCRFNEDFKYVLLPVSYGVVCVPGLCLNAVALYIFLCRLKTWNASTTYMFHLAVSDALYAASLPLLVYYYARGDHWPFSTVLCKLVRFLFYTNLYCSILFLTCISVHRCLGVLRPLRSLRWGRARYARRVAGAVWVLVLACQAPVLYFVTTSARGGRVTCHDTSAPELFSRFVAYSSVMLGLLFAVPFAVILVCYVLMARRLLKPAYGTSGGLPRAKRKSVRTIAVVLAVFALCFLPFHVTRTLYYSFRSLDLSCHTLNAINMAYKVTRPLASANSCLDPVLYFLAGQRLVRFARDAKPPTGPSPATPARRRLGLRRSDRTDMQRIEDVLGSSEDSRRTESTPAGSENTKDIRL

| Structure (SMILES) | hydrolysis by TNAP (TNAP) | type of inhibition (human NPP1) | agonist activity at P2Y2R (P2Y2 receptor) | inhibition of the typical response to UTP at P2Y2R (P2Y2 receptor) | relative activity (%) ± SD of ATP hydrolysis, NTPDase1 (human NTPDase1) | relative activity (%) ± SD of ATP hydrolysis, NTPDase3 (human NTPDase3) |
| --- | --- | --- | --- | --- | --- | --- |
| Nc1ncnc2c1ncn2[C@@H]1O[C@H](CO[P@](O)(=S)OP(=O)(O)C(Cl)(Cl)P(=O)(O)O)[C@@H](O)[C@H]1O [2a] | fully stable | mixed-type inhibition, predominantly competitive | no activity | did not inhibit | 5.3 ± 0.2% | 5.2 ± 0.2% |
| Nc1ncnc2c1ncn2[C@@H]1O[C@H](COP(=O)(O)CP(=O)(O)OP(O)(O)=S)[C@@H](O)[C@H]1O [compound 3] | 2.5% | mixed-type inhibition, predominantly competitive | no activity | did not inhibit | 5.3 ± 0.2% | 4.8 ± 0.2% |
